Data published in PubChem BioAssay (NCI).
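All cell lines were grown in 96-well plates and treated with compound for 48 hours. Abbreviation: GI50, concentration required for 50% inhibition of growth. Definition used: TGI = concentration required for complete inhibition of growth.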

Key:
Assay in all cases: NCI anticancer screen, dose series, 48 h
TK-10 renal = tested on: TK-10 renal
HCC-2998 colon = tested on: HCC-2998 colon
SF-295 CNS = tested on: SF-295 CNS
PC-3 prostate = tested on: PC-3 prostate
A549 NSCLC = tested on: A549 NSCLC
NCI-H460 lung = tested on: NCI-H460 lung
NCI-H522 lung = tested on: NCI-H522 lung
KM12 colon = tested on: KM12 colon
SF-268 CNS = tested on: SF-268 CNS
DU-145 prostate = tested on: DU-145 prostate
HS 578T breast = tested on: HS 578T breast
U251 CNS = tested on: U251 CNS
SNB-19 CNS = tested on: SNB-19 CNS
IGROV1 ovarian = tested on: IGROV1 ovarian
OVCAR-3 ovarian = tested on: OVCAR-3 ovarian
SK-MEL-2 melanoma = tested on: SK-MEL-2 melanoma
EKVX NSCLC = tested on: EKVX NSCLC
CAKI-1 renal = tested on: CAKI-1 renal

`O=C1C=CC=C[C@@H]2C(C3OCCO3)CC[C@H]12.[C-]#[O+].[C-]#[O+].[C-]#[O+].[Fe]` (stereo partly specified) showed a GI50 (TK-10 renal) greater than 100 µM, a TGI (TK-10 renal) greater than 100 µM and a GI50 (HCC-2998 colon) greater than 76.6 µM. The TGI (HCC-2998 colon) was greater than 100 µM, the GI50 (SF-295 CNS) was 44.4 µM and the TGI (SF-295 CNS) was greater than 100 µM. For the same compound, the GI50 (PC-3 prostate) was 98.9 µM, the TGI (PC-3 prostate) was greater than 100 µM and the GI50 (A549 NSCLC) was greater than 100 µM. It also gave a TGI (A549 NSCLC) greater than 100 µM, a GI50 (NCI-H460 lung) of 45.2 µM and a TGI (NCI-H460 lung) greater than 100 µM. The GI50 (NCI-H522 lung) was 29 µM, the TGI (NCI-H522 lung) was 46 µM and the GI50 (KM12 colon) was 48 µM. It also gave a TGI (KM12 colon) greater than 100 µM, a GI50 (SF-268 CNS) greater than 60 µM and a TGI (SF-268 CNS) greater than 100 µM. It also gave a GI50 (DU-145 prostate) of 93.3 µM, a TGI (DU-145 prostate) greater than 100 µM and a GI50 (HS 578T breast) greater than 100 µM. It also gave a TGI (HS 578T breast) greater than 100 µM, a GI50 (U251 CNS) of 44.7 µM and a TGI (U251 CNS) greater than 82.5 µM. For the same compound, the GI50 (SNB-19 CNS) was greater than 100 µM, the TGI (SNB-19 CNS) was greater than 100 µM and the GI50 (IGROV1 ovarian) was 26 µM. For the same compound, the TGI (IGROV1 ovarian) was 78.7 µM, the GI50 (OVCAR-3 ovarian) was 40.6 µM and the TGI (OVCAR-3 ovarian) was greater than 100 µM. It also gave a GI50 (SK-MEL-2 melanoma) greater than 71.1 µM, a TGI (SK-MEL-2 melanoma) greater than 100 µM and a GI50 (EKVX NSCLC) greater than 100 µM. It also gave a TGI (EKVX NSCLC) greater than 100 µM, a GI50 (CAKI-1 renal) of 93.3 µM and a TGI (CAKI-1 renal) greater than 100 µM.
